According to ChEMBL document CHEMBL5500371, “Arginine and tryptophan-rich dendritic antimicrobial peptides that disrupt membranes for bacterial infection in vivo” (Eur J Med Chem, 2024):
≈ marks a conversion by molar mass, not a printed value. Calls of active or inactive are those of the source. The rule behind the calls is not given here. Where a SMILES comes first, the peptide text is derived from it. Side-chain parts run from the residue outwards.

Key:
Acinetobacter baumannii = assay: Antibacterial activity against Acinetobacter baumannii ATCC 19606 assessed as inhibition of bacterial growth incubated for 20 hrs by broth microdilution method; assay type: functional
Staphylococcus aureus [1] = assay: Additive antibacterial activity against gentamicin resistant Staphylococcus aureus ATCC 25923 assessed as fractional inhibitory concentration index at 0.25 to 4 times MIC incubated for 20 hrs in presence of gentamicin by checkerboard assay; assay type: functional
Staphylococcus aureus [2] = assay: Antibacterial activity against Staphylococcus aureus ATCC 25923 assessed as inhibition of bacterial growth preincubated with 10% mouse serum for 1 hr and measured after 20 hrs by broth microdilution method; assay type: functional
Escherichia coli [3] = assay: Drug resistance, ratio of MIC for Escherichia coli after 20 passages to MIC for Escherichia coli after initial exposure; assay type: functional
Staphylococcus aureus [4] = assay: Synergistic antibacterial activity against Staphylococcus aureus ATCC 25923 assessed as fractional inhibitory concentration index at 0.25 to 4 times MIC incubated for 20 hrs in presence of gentamicin by checkerboard assay; assay type: functional
Escherichia coli [5] = assay: Antibacterial activity against Escherichia coli ATCC 25922 assessed as inhibition of bacterial growth incubated for 20 hrs by broth microdilution method; assay type: functional
Staphylococcus aureus [6] = assay: Additive antibacterial activity against Staphylococcus aureus ATCC 25923 assessed as fractional inhibitory concentration index at 0.25 to 4 times MIC incubated for 20 hrs in presence of vancomycin by checkerboard assay; assay type: functional
Pseudomonas aeruginosa = assay: Antibacterial activity against Pseudomonas aeruginosa ATCC 27853 assessed as inhibition of bacterial growth incubated for 20 hrs by broth microdilution method; assay type: functional
Staphylococcus aureus [7] = assay: Antibacterial activity against Staphylococcus aureus ATCC 25923 assessed as inhibition of bacterial growth by measuring fold increase in MIC incubated for 20 hrs in presence of FeCl3 by broth microdilution method relative to control; assay type: functional
Escherichia coli [8] = assay: Antibacterial activity against Escherichia coli ATCC 25922 assessed as inhibition of bacterial growth preincubated with 10% mouse serum for 6 hrs and measured after 20 hrs by broth microdilution method; assay type: functional
Cell membrane [9] = assay: Induction of cell membrane damage in Staphylococcus aureus assessed as PI uptake at 2 times MIC measured after 0.5 hrs by PI dye based flow cytometry analysis (reference value: 24.2%); assay type: cell membranes
Staphylococcus aureus [10] = assay: Antibacterial activity against Staphylococcus aureus ATCC 25923 assessed as inhibition of bacterial growth by measuring fold increase in MIC incubated for 20 hrs in presence of ZnCl2 by broth microdilution method relative to control; assay type: functional
Escherichia coli [11] = assay: […] activity against Escherichia coli ATCC 25922 infected in male BALB/c pulmonary infection model assessed as reduction in infiltration of pneumonia cells at 5 to 10 mg/kg, ip administered at 3 and 12 hrs post infection and measured 24 hrs post infection by H and E staining based analysis; assay type: functional, organism-based; conditions: dose 5-10 mg/kg, time 12-21 hrs
Staphylococcus aureus [12] = assay: Antibacterial activity against Staphylococcus aureus ATCC 25923 assessed as inhibition of bacterial growth by measuring fold increase in MIC incubated for 20 hrs in presence of KCl by broth microdilution method relative to control; assay type: functional
Cell membrane [13] = assay: Disruption of cell membrane morphology in Staphylococcus aureus assessed as breakage of cell membrane at 2 times MIC measured after 0.5 to 2 hrs by SEM analysis; assay type: cell membranes; conditions: time 0.5-2 hrs
Cell membrane [14] = assay: Disruption of cell membrane morphology in Staphylococcus aureus assessed as release of cellular contents at 2 times MIC measured after 0.5 to 2 hrs by SEM analysis; assay type: cell membranes; conditions: time 0.5-2 hrs
Klebsiella pneumoniae = assay: Antibacterial activity against Klebsiella pneumoniae ATCC 700603 assessed as inhibition of bacterial growth incubated for 20 hrs by broth microdilution method; assay type: functional
Staphylococcus aureus [15] = assay: Antibacterial activity against Staphylococcus aureus ATCC 25923 assessed as inhibition of bacterial growth by measuring fold increase in MIC incubated for 20 hrs in presence of MgCl2 by broth microdilution method relative to control; assay type: functional
Lipopolysaccharide (LPS) = assay: Binding affinity to LPS (unknown origin) assessed as reduction in bacterial mortality at 2 times MIC preincubated with LPS for 1 hr followed by bacteria addition and measured after 18 hrs by microplate reader analysis; assay type: subcellular; conditions: time 19.0 hrs
Bacillus subtilis = assay: Antibacterial activity against Bacillus subtilis ATCC 23857 assessed as inhibition of bacterial growth incubated for 20 hrs by broth microdilution method; assay type: functional
Cell membrane [16] = assay: Disruption of cell membrane morphology in Escherichia coli assessed as partial creasing in bacterial membrane at 2 times MIC measured after 0.5 to 2 hrs by SEM analysis; assay type: cell membranes; conditions: time 0.5-2 hrs
Cell membrane [17] = assay: Disruption of cell membrane morphology in Staphylococcus aureus assessed as loss of intact cell morphology at 2 times MIC measured after 0.5 to 2 hrs by SEM analysis; assay type: cell membranes; conditions: time 0.5-2 hrs
Escherichia coli [18] = assay: Antibacterial activity against Escherichia coli ATCC 25922 assessed as inhibition of bacterial growth preincubated with 10% mouse serum for 1 hr and measured after 20 hrs by broth microdilution method; assay type: functional
Staphylococcus aureus [19] = assay: Antibacterial activity against Staphylococcus aureus ATCC 25923 assessed as inhibition of bacterial growth by measuring fold increase in MIC incubated for 20 hrs in presence of NaCl by broth microdilution method relative to control; assay type: functional
Staphylococcus aureus [20] = assay: Additive antibacterial activity against Staphylococcus aureus ATCC 25923 assessed as fractional inhibitory concentration index at 0.25 to 4 times MIC incubated for 20 hrs in presence of kanamycin by checkerboard assay; assay type: functional
Erythrocyte = assay: Hemolytic activity in mouse erythrocytes assessed as 10% hemolysis incubated for 1 hr by absorbance based analysis; assay type: toxicity, cell-based
[21] = Cytotoxicity against HEK293T cells assessed as cell death measured after 1 hr by resazurin dye based analysis; assay type: toxicity, HEK-293T; conditions: human, HEK293T cells
Staphylococcus aureus [22] = assay: Antibacterial activity against Staphylococcus aureus ATCC 25923 assessed as inhibition of bacterial growth incubated for 20 hrs by broth microdilution method; assay type: functional
Escherichia coli [23] = assay: Additive antibacterial activity against Escherichia coli ATCC 25922 assessed as fractional inhibitory concentration index at 0.25 to 4 times MIC incubated for 20 hrs in presence of vancomycin by checkerboard assay; assay type: functional
Staphylococcus aureus [24] = assay: Antibacterial activity against Staphylococcus aureus ATCC 25923 assessed as inhibition of bacterial growth preincubated with 10% mouse serum for 6 hrs and measured after 20 hrs by broth microdilution method; assay type: functional
Escherichia coli [25] = assay: Resistant development in Escherichia coli assessed as increase in MIC at sub-MIC in presence of rifampicin measured after 20 passages; assay type: functional, organism-based
Cell membrane [26] = assay: Induction of cytoplasmic membrane depolarization in Staphylococcus aureus assessed as increase in fluorescence intensity at >1 times MIC measured within 1 min by DISC3-5 dye based fluorescence analysis
[27] = Therapeutic index, ratio of MHC10 for hemolytic activity in mouse erythrocytes preincubated with 10% mouse serum for 1 hr to MIC for Staphylococcus aureus ATCC 25923 preincubated with 10% mouse serum for 1 hr; assay type: toxicity, cell-based; conditions: mouse erythrocytes, read-out: TI
Staphylococcus aureus [28] = assay: Drug resistance, ratio of MIC for Staphylococcus aureus after 20 passages to MIC for Staphylococcus aureus after initial exposure; assay type: functional
Escherichia coli [29] = assay: Synergistic antibacterial activity against Escherichia coli ATCC 25922 assessed as fractional inhibitory concentration index at 0.25 to 4 times MIC incubated for 20 hrs in presence of kanamycin by checkerboard assay; assay type: functional

N=C(N)NCCC[C@H](NC(=O)[C@@H](N)CCCNC(=N)N)C(=O)NCCCC[C@H](NC(=O)[C@H](CCCNC(=N)N)NC(=O)[C@@H](N)CCCNC(=N)N)C(=O)N[C@@H](Cc1c[nH]c2ccccc12)C(=O)N[C@@H](Cc1c[nH]c2ccccc12)C(=O)N[C@@H](Cc1c[nH]c2ccccc12)C(=O)N[C@@H](Cc1c[nH]c2ccccc12)C(N)=O (H-RRK([Arg-Arg])WWWW-NH2)
MIC (Acinetobacter baumannii): 32 µM (≈ 48.5 µg/mL) | fractional inhibitory concentration index (FICI) (Staphylococcus aureus [1]): 0.563 | MIC (Staphylococcus aureus [2]; time 21 hrs): 1 µM (≈ 1.51 µg/mL) | Ratio (Escherichia coli [3]): <=2 | fractional inhibitory concentration index (FICI) (Staphylococcus aureus [4]): 0.313 | MIC (Escherichia coli [5]): 16 µM (≈ 24.2 µg/mL) | fractional inhibitory concentration index (FICI) (Staphylococcus aureus [6]): 0.563 | MIC (Pseudomonas aeruginosa): 8 µM (≈ 12.1 µg/mL) | fold change (FC) (Staphylococcus aureus [7]): <=2 | MIC (Escherichia coli [8]; time 26 hrs): 2 µM (≈ 3.03 µg/mL) | Activity (Cell membrane [9]): > 90% | fold change (FC) (Staphylococcus aureus [10]): <=2 | Activity (Escherichia coli [11]): Active | fold change (FC) (Staphylococcus aureus [12]): <=2 | Activity (Cell membrane [13]): Active | Activity (Cell membrane [14]): Active | MIC (Klebsiella pneumoniae): 64 µM (≈ 96.9 µg/mL) | fold change (FC) (Staphylococcus aureus [15]): <=2 | Activity (Lipopolysaccharide (LPS)): Active | MIC (Bacillus subtilis): 4 µM (≈ 6.06 µg/mL) | Activity (Cell membrane [16]): Active | Activity (Cell membrane [17]): Active | MIC (Escherichia coli [18]; time 21 hrs): 1 µM (≈ 1.51 µg/mL) | fold change (FC) (Staphylococcus aureus [19]): <=2 | fractional inhibitory concentration index (FICI) (Staphylococcus aureus [20]): 0.563 | MHC10 (Erythrocyte): > 256 µM | CC50 at 1 h [21]: > 128 µM | MIC (Staphylococcus aureus [22]): 16 µM (≈ 24.2 µg/mL) | fractional inhibitory concentration index (FICI) (Escherichia coli [23]): 0.563 | MIC (Staphylococcus aureus [24]; time 21 hrs): 1 µM (≈ 1.51 µg/mL) | Activity (Escherichia coli [25]): inactive | Activity (Cell membrane [26]): Active | selectivity ratio [27]: 1 | Ratio (Staphylococcus aureus [28]): <=2

POLYMYXIN B
MIC (Acinetobacter baumannii): 2 µM | fractional inhibitory concentration index (FICI) (Staphylococcus aureus [1]): 1 | MIC (Staphylococcus aureus [2]; time 21.0 hrs): 1 µM | fractional inhibitory concentration index (FICI) (Staphylococcus aureus [4]): 0.313 | MIC (Escherichia coli [5]): 4 µM | fractional inhibitory concentration index (FICI) (Staphylococcus aureus [6]): 0.563 | MIC (Pseudomonas aeruginosa): 4 µM | fold change (FC) (Staphylococcus aureus [7]): < 2 | MIC (Escherichia coli [8]; time 26.0 hrs): 2 µM | fold change (FC) (Staphylococcus aureus [10]): < 2 | fold change (FC) (Staphylococcus aureus [12]): < 2 | MIC (Klebsiella pneumoniae): 4 µM | fractional inhibitory concentration index (FICI) (Escherichia coli [29]): 0.5 | fold change (FC) (Staphylococcus aureus [15]): < 2 | MIC (Bacillus subtilis): 4 µM | MIC (Escherichia coli [18]; time 21.0 hrs): 1 µM | fold change (FC) (Staphylococcus aureus [19]): 4 | fractional inhibitory concentration index (FICI) (Staphylococcus aureus [20]): 0.563 | MIC (Staphylococcus aureus [22]): 16 µM | MIC (Staphylococcus aureus [24]; time 21.0 hrs): 1 µM

N=C(N)NCCC[C@H](NC(=O)[C@H](CCCNC(=N)N)NC(=O)[C@H](CCCNC(=N)N)NC(=O)[C@@H](N)CCCNC(=N)N)C(=O)N[C@@H](CCCCN)C(=O)N[C@@H](Cc1c[nH]c2ccccc12)C(=O)N[C@@H](Cc1c[nH]c2ccccc12)C(=O)N[C@@H](Cc1c[nH]c2ccccc12)C(=O)N[C@@H](Cc1c[nH]c2ccccc12)C(N)=O
MIC (Acinetobacter baumannii): 64 µM (≈ 96.9 µg/mL) | MIC (Staphylococcus aureus [2]; time 21 hrs): 2 µM (≈ 3.03 µg/mL) | Ratio (Escherichia coli [3]): <=2 | fractional inhibitory concentration index (FICI) (Staphylococcus aureus [4]): 0.375 | MIC (Escherichia coli [5]): 8 µM (≈ 12.1 µg/mL) | fractional inhibitory concentration index (FICI) (Staphylococcus aureus [6]): 0.563 | MIC (Pseudomonas aeruginosa): 16 µM (≈ 24.2 µg/mL) | fold change (FC) (Staphylococcus aureus [7]): <=2 | MIC (Escherichia coli [8]; time 26 hrs): 4 µM (≈ 6.06 µg/mL) | Activity (Cell membrane [9]): > 90% | fold change (FC) (Staphylococcus aureus [10]): <=2 | Activity (Escherichia coli [11]): Active | fold change (FC) (Staphylococcus aureus [12]): <=2 | Activity (Cell membrane [13]): Active | Activity (Cell membrane [14]): Active | MIC (Klebsiella pneumoniae): 32 µM (≈ 48.5 µg/mL) | fractional inhibitory concentration index (FICI) (Escherichia coli [29]): 0.5 | fold change (FC) (Staphylococcus aureus [15]): <=2 | Activity (Lipopolysaccharide (LPS)): Active | MIC (Bacillus subtilis): 4 µM (≈ 6.06 µg/mL) | Activity (Cell membrane [16]): Active | Activity (Cell membrane [17]): Active | MIC (Escherichia coli [18]; time 21 hrs): 2 µM (≈ 3.03 µg/mL) | fold change (FC) (Staphylococcus aureus [19]): <=2 | fractional inhibitory concentration index (FICI) (Staphylococcus aureus [20]): 0.563 | MHC10 (Erythrocyte): > 256 µM | CC50 at 1 h [21]: > 128 µM | MIC (Staphylococcus aureus [22]): 8 µM (≈ 12.1 µg/mL) | fractional inhibitory concentration index (FICI) (Escherichia coli [23]): 0.625 | MIC (Staphylococcus aureus [24]; time 21 hrs): 2 µM (≈ 3.03 µg/mL) | Activity (Escherichia coli [25]): inactive | Activity (Cell membrane [26]): Active | selectivity ratio [27]: 0.5 | Ratio (Staphylococcus aureus [28]): <=2
